Assay results as given in patent publication US11331299B2, “Medicinal use of serrulatane diterpenes” (The University of Sydney, priority 2016, dated 2022).
Where two headings read alike, the source gives them in different places.

System: 280 human cancer cell lines
Experiment: OncoPanel cell proliferation assay (10-day)
Type: cell-based
Conditions: Homo sapiens; for IC50: read-out: Cell Count IC50; for EC50: read-out: Cell Count EC50
[1] = SW872, SW872, Soft Tissue - Sarcoma
[2] = SW 954, SW954, Female GU - Vulva
[3] = SW982, SW982, Soft Tissue - Sarcoma
[4] = SW1353, SW1353, Soft Tissue - Osteosarcoma
[5] = TE 125.T, Soft Tissue - Sarcoma
[6] = TE 381.T, Soft Tissue - Sarcoma
[7] = U2OS, Soft Tissue - Osteosarcoma
[8] = U-118-MG, U-118 MG, CNS - Glioma
[9] = VA-ES-BJ, Soft Tissue - Sarcoma
[10] = WM 266-4, WM-266-4, Skin (Melanoma)

CC(C)=CCC[C@@H]1C(O)Oc2c(C)cc(O)c3c2[C@H]1CC[C@H]3C (some centres unmarked) [Compound 2, 5,18-epoxyserrulat-14-en-8,18-diol]
IC50 (SW837, SW837, Colon): > 30 µM
EC50 [1]: 4.46 µM
GI50 (SW872, SW872, Soft Tissue - Sarcoma, read-out: Cell Count GI50): 4.45 µM
IC50 [1]: 4.46 µM
EC50 (SW900, SW900, Lung - SCLC): 26.6 µM
GI50 (SW900, SW900, Lung - SCLC, read-out: Cell Count GI50): 26.7 µM
IC50 (SW900, SW900, Lung - SCLC): 26.8 µM
EC50 (SW948, SW948, Colon): 14.7 µM
GI50 (SW948, SW948, Colon, read-out: Cell Count GI50): 14.5 µM
IC50 (SW948, SW948, Colon): 14.7 µM
EC50 [2]: > 30 µM
GI50 (SW 954, SW954, Female GU - Vulva, read-out: Cell Count GI50): > 30 µM
IC50 [2]: > 30 µM
EC50 [3]: 7.63 µM
GI50 (SW982, SW982, Soft Tissue - Sarcoma, read-out: Cell Count GI50): 7.53 µM
IC50 [3]: 7.63 µM
EC50 (SW1088, SW1088, CNS - Glioma): 10.7 µM
GI50 (SW1088, SW1088, CNS - Glioma, read-out: Cell Count GI50): 10.5 µM
IC50 (SW1088, SW1088, CNS - Glioma): 10.7 µM
EC50 [4]: 9.49 µM
GI50 (SW1353, SW1353, Soft Tissue - Osteosarcoma, read-out: Cell Count GI50): 9.46 µM
IC50 [4]: 9.49 µM
EC50 (SW1417, SW1417, Colon): 22.8 µM
GI50 (SW1417, SW1417, Colon, read-out: Cell Count GI50): 21.8 µM
IC50 (SW1417, SW1417, Colon): 22.8 µM
EC50 (SW1463, SW1463, Colon): > 30 µM
GI50 (SW1463, SW1463, Colon, read-out: Cell Count GI50): > 30 µM
IC50 (SW1463, SW1463, Colon): > 30 µM
EC50 (SW1783, SW1783, CNS - Glioma): 10.2 µM
GI50 (SW1783, SW1783, CNS - Glioma, read-out: Cell Count GI50): 10.5 µM
IC50 (SW1783, SW1783, CNS - Glioma): 11 µM
EC50 (SW-403, SW403, Colon): > 30 µM
GI50 (SW-403, SW403, Colon, read-out: Cell Count GI50): > 30 µM
IC50 (SW-403, SW403, Colon): > 30 µM
EC50 (SW-620, SW620, Colon): 13.2 µM
GI50 (SW-620, SW620, Colon, read-out: Cell Count GI50): 13.2 µM
IC50 (SW-620, SW620, Colon): 13.2 µM
EC50 (SiHa, Female GU - Cervix): 28.3 µM
GI50 (SiHa, Female GU - Cervix, read-out: Cell Count GI50): 25.8 µM
IC50 (SiHa, Female GU - Cervix): 28.3 µM
EC50 (T24, Bladder): 20.4 µM
GI50 (T24, Bladder, read-out: Cell Count GI50): 20.3 µM
IC50 (T24, Bladder): 20.4 µM
EC50 (T47D, Breast): 10.2 µM
GI50 (T47D, Breast, read-out: Cell Count GI50): 9.4 µM
IC50 (T47D, Breast): 10.2 µM
EC50 (T98G, CNS - Glioma): 19.1 µM
GI50 (T98G, CNS - Glioma, read-out: Cell Count GI50): 19 µM
IC50 (T98G, CNS - Glioma): 19.1 µM
EC50 (TCC-SUP, TCCSUP, Bladder): 8.2 µM
GI50 (TCC-SUP, TCCSUP, Bladder, read-out: Cell Count GI50): 7.78 µM
IC50 (TCC-SUP, TCCSUP, Bladder): 8.2 µM
EC50 [5]: > 30 µM
GI50 (TE 125.T, Soft Tissue - Sarcoma, read-out: Cell Count GI50): 28.7 µM
IC50 [5]: > 30 µM
EC50 [6]: 8.14 µM
GI50 (TE 381.T, Soft Tissue - Sarcoma, read-out: Cell Count GI50): 7.99 µM
IC50 [6]: 8.14 µM
EC50 (TF-1, Leukemia): 2.75 µM
GI50 (TF-1, Leukemia, read-out: Cell Count GI50): 2.44 µM
IC50 (TF-1, Leukemia): 2.75 µM
EC50 (THP-1, Thp1, Leukemia): 5.32 µM
GI50 (THP-1, Thp1, Leukemia, read-out: Cell Count GI50): 5.61 µM
IC50 (THP-1, Thp1, Leukemia): 5.69 µM
EC50 (TUR, Lymphoma): 2.63 µM
GI50 (TUR, Lymphoma, read-out: Cell Count GI50): > 30 µM
IC50 (TUR, Lymphoma): > 30 µM
EC50 [7]: 12.7 µM
GI50 (U2OS, Soft Tissue - Osteosarcoma, read-out: Cell Count GI50): 12.7 µM
IC50 [7]: 12.7 µM
EC50 (U138-MG, U-138MG, CNS - Glioma): > 30 µM
GI50 (U138-MG, U-138MG, CNS - Glioma, read-out: Cell Count GI50): > 30 µM
IC50 (U138-MG, U-138MG, CNS - Glioma): > 30 µM
EC50 (U266B1, Myeloma): 9.15 µM
GI50 (U266B1, Myeloma, read-out: Cell Count GI50): 9.01 µM
IC50 (U266B1, Myeloma): 9.28 µM
EC50 (U-87 MG, CNS - Glioma): > 30 µM
GI50 (U-87 MG, CNS - Glioma, read-out: Cell Count GI50): > 30 µM
IC50 (U-87 MG, CNS - Glioma): > 30 µM
EC50 [8]: 29.6 µM
GI50 (U-118-MG, U-118 MG, CNS - Glioma, read-out: Cell Count GI50): 29.4 µM
IC50 [8]: 29.6 µM
EC50 (UMUC3, UM-UC-3, Bladder): 5.3 µM
GI50 (UMUC3, UM-UC-3, Bladder, read-out: Cell Count GI50): 5.74 µM
IC50 (UMUC3, UM-UC-3, Bladder): 5.75 µM
EC50 [9]: > 30 µM
GI50 (VA-ES-BJ, Soft Tissue - Sarcoma, read-out: Cell Count GI50): > 30 µM
IC50 [9]: > 30 µM
EC50 [10]: 6.39 µM
GI50 (WM 266-4, WM-266-4, Skin (Melanoma), read-out: Cell Count GI50): 6.25 µM
IC50 [10]: 6.39 µM
EC50 (WiDr, Colon): 14.5 µM
GI50 (WiDr, Colon, read-out: Cell Count GI50): 14.4 µM
IC50 (WiDr, Colon): 14.5 µM
EC50 (Y79, Eye): 6.57 µM
GI50 (Y79, Eye, read-out: Cell Count GI50): 7.41 µM
IC50 (Y79, Eye): 7.65 µM
EC50 (YAPC, Pancreas): 13 µM
GI50 (YAPC, Pancreas, read-out: Cell Count GI50): 12.9 µM
IC50 (YAPC, Pancreas): 13 µM
GI50 (strong: J-RT3-T3-5, Jurkat, MOLT-3, NALM-6, TF-1, RPMI8226, SKO-007, RD, read-out: GI50): 1 to 2.96 µM
